# Experimental data as given in patent US12673946B2, “Pyrimidin-4(3H)-one derivatives as TRPV4 antagonists” (RaQualia Pharma Inc., priority 2020, dated 2026).
# Target: T1, human TRPV4 (Homo sapiens, UniProt Q9HBA0)
# T1 construct: host or cells: tetracycline-inducible Flp-In T-REx 293 cells
# Experiment: Hypotonicity-induced Ca2+ influx (Fluo-4, FDSS)
# Assay type: cell-based
# Experimental: Hypotonicity-Induced Ca^2+ Influx
# TRPV4 channel activation/opening results in an influx of Ca^2+ (Liedtke, W. et al., 2000 (NPL 1)). The resulting changes in intracellular calcium are monitored using a Ca^2+ sensitive fluorescent dye Fluo-4 (Invitrogen). Dye loaded cells are treated with the test compounds for 5 minutes prior to the addition of a hypotonic solution and the inhibition of the hypotonicity-induced activation is recorded.
# Forty microL of tetracycline-inducible Flp-In T-REx 293 cells (Invitrogen) stably expressing human TRPV4 are seeded onto the poly-D-lysine coated 384-well plate (Corning) at a density of 10,000 cells per well. The following day, TRPV4 expression is induced by adding 0.5 microg/mL tetracycline for 20-24 hours. On the day of the experiment, the media is removed and replaced with 40 microL of dye loading buffer [1 microM Fluo-4 AM (Invitrogen), 0.01% Pluronic F-127, and 20 mM HEPES in Hanks' balanced salt solutions (HBSS; Invitrogen)] and then the cells are incubated for 60 minutes at 25° C. Dye is then removed and replaced with 20 microL of assay buffer (20 mM HEPES in HBSS). Five minutes prior to the fluorescence measurement, 10 microL of test compound is added to the cells. Using the FDSS instrument (Hamamatsu Photonics), 30 microL of hypotonic solution (90 mM D-mannitol and 1.26 mM CaCl2 in ultrapure water) is added 30 seconds after the start of measurement. The calcium flux signal is recorded for a total of 4.5 minutes.
# [1] = Flp-In T-REx 293 cells expressing human TRPV4, examples listed under heading 'Human IC50<50 nM'
# [2] = Flp-In T-REx 293 cells stably expressing human TRPV4, compounds listed by potency bin (<10 nM Tables 96-1/96-2, <3 nM Table 97)
# T1 sequence (Q9HBA0 whole entry): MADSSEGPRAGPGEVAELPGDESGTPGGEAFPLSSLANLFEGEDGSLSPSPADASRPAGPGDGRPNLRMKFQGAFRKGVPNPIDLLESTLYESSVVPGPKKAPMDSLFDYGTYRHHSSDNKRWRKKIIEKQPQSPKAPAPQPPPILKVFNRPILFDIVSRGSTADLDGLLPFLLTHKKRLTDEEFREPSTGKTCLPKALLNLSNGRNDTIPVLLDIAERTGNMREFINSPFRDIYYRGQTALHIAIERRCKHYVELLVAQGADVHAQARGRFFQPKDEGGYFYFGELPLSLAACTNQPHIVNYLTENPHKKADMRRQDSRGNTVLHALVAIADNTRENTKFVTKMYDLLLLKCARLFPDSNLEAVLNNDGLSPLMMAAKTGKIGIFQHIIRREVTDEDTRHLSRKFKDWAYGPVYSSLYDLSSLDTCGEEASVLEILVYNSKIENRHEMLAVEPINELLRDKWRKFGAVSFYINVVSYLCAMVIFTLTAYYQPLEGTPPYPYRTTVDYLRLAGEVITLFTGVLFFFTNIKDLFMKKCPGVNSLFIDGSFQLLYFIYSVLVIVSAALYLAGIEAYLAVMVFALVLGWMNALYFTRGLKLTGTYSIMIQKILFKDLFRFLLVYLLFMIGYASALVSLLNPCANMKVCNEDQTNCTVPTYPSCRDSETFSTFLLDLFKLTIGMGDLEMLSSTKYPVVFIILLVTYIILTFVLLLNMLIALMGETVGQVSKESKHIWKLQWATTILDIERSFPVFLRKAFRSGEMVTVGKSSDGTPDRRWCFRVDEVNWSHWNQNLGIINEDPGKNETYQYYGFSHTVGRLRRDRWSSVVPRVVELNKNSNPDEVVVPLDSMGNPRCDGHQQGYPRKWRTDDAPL
Structure (SMILES),IC50 [1],IC50 [2]
O=C(Cc1cccc(-c2cccc(Cl)c2)c1)N1CCCc2nc(C3(c4cccc(Cl)c4)CC3)[nH]c(=O)c2C1 [17-100],< 50 nM,< 3 nM
O=C(C(O)c1cccc(-c2cccc(C(F)(F)F)c2)c1)N1CCc2nc(C3(c4cccc(Cl)c4)CC3)[nH]c(=O)c2C1 (centres unmarked) [14-8],< 50 nM,< 10 nM
O=C(C(O)c1cccc(S(F)(F)(F)(F)F)c1)N1CCc2nc(C3(c4cccc(F)c4)CC3)[nH]c(=O)c2C1 (centres unmarked) [14-23],< 50 nM,
O=C(C(O)c1cccc(Oc2ccccc2)c1)N1CCCc2nc(C3(c4ccccc4)CC3)[nH]c(=O)c2C1 (centres unmarked) [17-85],< 50 nM,
O=C(Cc1cccc(OC(F)(F)F)c1)N1CCCc2nc(C3(c4cccc(Cl)c4)CC3)[nH]c(=O)c2C1 [17-112],< 50 nM,
O=C(C(O)c1cccc(S(F)(F)(F)(F)F)c1)N1CCc2nc(C3(c4cccs4)CC3)[nH]c(=O)c2C1 (centres unmarked) [15-13],< 50 nM,
O=C(C(O)c1cccc(C2CC2)c1)N1CCCc2nc(C3(c4cccs4)CC3)[nH]c(=O)c2C1 (centres unmarked) [18-13],< 50 nM,
O=C([C@H](O)c1cccc(C(F)(F)F)c1)N1CCCc2nc(C3(c4cc(C5CCCCC5)cs4)CC3)[nH]c(=O)c2C1 [18-4],< 50 nM,< 10 nM
O=C(Cc1cccc(-c2cccc(Cl)c2)c1)N1CCCc2nc(C3(c4cc(-c5ccccc5)cs4)CC3)[nH]c(=O)c2C1 [18-27],< 50 nM,< 10 nM
O=C(C(O)c1cccc(Cl)c1F)N1CCCc2nc(C3(c4cccc(Cl)c4)CC3)[nH]c(=O)c2C1 (centres unmarked) [17-7],< 50 nM,< 3 nM
CC(C)c1cccc(C(O)C(=O)N2CCCc3nc(C4(c5ccccc5)CC4)[nH]c(=O)c3C2)c1 (centres unmarked) [17-59],< 50 nM,
O=C([C@H](O)c1cccc(Cl)c1)N1CCc2nc(C3(c4cccc(-c5ccccc5)c4)CC3)[nH]c(=O)c2C1 [14-10],< 50 nM,< 10 nM
O=C([C@H](O)c1cccc(C(F)(F)F)c1)N1CCc2nc(C3(c4cc(C5CCC(F)(F)CC5)cs4)CC3)[nH]c(=O)c2C1 [26-1],< 50 nM,< 10 nM
Cc1cccc(C(O)C(=O)N2CCCc3nc(C4(c5ccccc5)CC4)[nH]c(=O)c3C2)c1F (centres unmarked) [17-56],< 50 nM,
O=C(Cc1cccc(-c2ccc(C(F)(F)F)cc2)c1)N1CCc2nc(C3(c4cccc(Cl)c4)CC3)[nH]c(=O)c2C1 [14-117],< 50 nM,
O=C([C@H](O)c1cccc(C(F)(F)F)c1)N1CCc2nc(C3(c4cc(Br)cs4)CC3)[nH]c(=O)c2C1 [15-9],< 50 nM,< 10 nM
CC(C)c1cncc(C2(c3nc4c(c(=O)[nH]3)CN(C(=O)C(O)c3cccc(C(C)(C)C)c3)CCC4)CC2)c1 (centres unmarked) [19-4],< 50 nM,< 10 nM
O=C(Cc1cccc(OCc2ccccc2)c1)N1CCCc2nc(C3(c4ccccc4)CC3)[nH]c(=O)c2C1 [17-146],< 50 nM,< 10 nM
O=C(N1CCCc2nc(C3(c4ccccc4)CC3)[nH]c(=O)c2C1)C(F)(F)c1cccc(Cl)c1 [20-7],< 50 nM,< 10 nM
O=C([C@H](O)c1cccc(Cl)c1)N1CCCc2nc(C3(c4ccccc4)CC3)[nH]c(=O)c2C1 [10-7],< 50 nM,

# Other lines, results leading:
IC50 [1],IC50 [2],Structure (SMILES)
< 50 nM,< 3 nM,O=C([C@H](O)c1cccc(Cl)c1)N1CCCc2nc(C3(c4cccc(C5=CCCCC5)c4)CC3)[nH]c(=O)c2C1 [40-20]
< 50 nM,,O=C(NCc1ccccc1)c1csc(C2(c3nc4c(c(=O)[nH]3)CN(C(=O)[C@H](O)c3cccc(C(F)(F)F)c3)CCC4)CC2)c1 [59-6]
< 50 nM,< 3 nM,O=C([C@H](O)c1cccc(-c2cccc(C(F)(F)F)c2)c1)N1CCCc2nc(C3(c4cccc(Cl)c4)CC3)[nH]c(=O)c2C1 [50-4]
< 50 nM,< 3 nM,CN(C)c1ccc(-c2cccc(C3(c4nc5c(c(=O)[nH]4)CN(C(=O)[C@H](O)c4cccc(C(F)(F)F)c4)CCC5)CC3)c2)cc1 [42-11]
< 50 nM,,O=C(C(O)c1cccc(-c2ccccc2)c1)N1CCc2nc(C3(c4ccccc4)CC3)[nH]c(=O)c2C1 (centres unmarked) [44-55]
< 50 nM,< 3 nM,CC(C)c1csc(C2(c3nc4c(c(=O)[nH]3)CN(C(=O)[C@H](O)c3cccc(-c5cccc(F)c5)c3)CCC4)CC2)c1 [54-5]
< 50 nM,< 3 nM,CC(C)Cc1cccc(C2(c3nc4c(c(=O)[nH]3)CN(C(=O)[C@H](O)c3cccc(C(F)(F)F)c3)CCC4)CC2)c1 [31-6]
< 50 nM,< 10 nM,O=C(C(O)c1cccc(-c2cc(F)cc(Cl)c2)c1)N1CCc2nc(C3(c4ccccc4)CC3)[nH]c(=O)c2C1 (centres unmarked) [44-11]
< 50 nM,< 10 nM,CC(C)(C)c1cc(-c2cccc([C@@H](O)C(=O)N3CCc4nc(C5(c6ccccc6)CC5)[nH]c(=O)c4C3)c2)cc(C(C)(C)C)c1 [44-103]
< 50 nM,< 10 nM,O=C([C@H](O)c1cccc(-c2cccc(OC(F)(F)F)c2)c1)N1CCCc2nc(C3(c4cncc(-c5ccccc5)c4)CC3)[nH]c(=O)c2C1 [56-6]
< 50 nM,,O=C(C(O)c1cccc(-c2ccc(C(F)(F)F)cc2)c1)N1CCc2nc(C3(c4ccccc4)CC3)[nH]c(=O)c2C1 (centres unmarked) [44-25]
< 50 nM,< 10 nM,O=C(Cc1cccc(-c2cccc(F)c2)c1)N1CCCc2nc(C3(c4ccccc4)CC3)[nH]c(=O)c2C1 [57-1]
< 50 nM,< 3 nM,O=C([C@H](O)c1cccc(-c2ccc(F)c(Cl)c2)c1)N1CCCc2nc(C3(c4ccccc4)CC3)[nH]c(=O)c2C1 [49-30]
< 50 nM,< 10 nM,O=C(C(O)c1cccc(-c2ccc(-c3ccc(Cl)cc3)cc2)c1)N1CCc2nc(C3(c4ccccc4)CC3)[nH]c(=O)c2C1 (centres unmarked) [44-118]
< 50 nM,< 10 nM,CC(C)c1cncc(C2(c3nc4c(c(=O)[nH]3)CN(C(=O)[C@H](O)c3cccc(-c5ccc(OC(F)(F)F)cc5)c3)CC4)CC2)c1 [47-6]
< 50 nM,< 10 nM,"CC(C)N(C(=O)c1csc(C2(c3nc4c(c(=O)[nH]3)CN(C(=O)[C@H](O)c3cccc(C(F)(F)F)c3)CCC4)CC2)c1)C(C)C [59-14, (R)-5-(1-(6-(2-hydroxy-2-(3-(trifluoromethyl)phenyl)acetyl)-4-oxo-4,5,6,7,8,9-hexahydro-3H-pyrimido[5,4-c]azepin-2-yl)cyclopropyl)-N,N-diisopropylthiophene-3-carboxamide]"
< 50 nM,< 10 nM,O=C([C@H](O)c1cccc(C(F)(F)F)c1)N1CCCc2nc(C3(c4cc(CCC56CC7CC(CC(C7)C5)C6)cs4)CC3)[nH]c(=O)c2C1 [30-5]
< 50 nM,< 10 nM,O=C([C@H](O)c1cccc(Cl)c1)N1CCc2nc(C3(c4cccc(-c5cnsc5)c4)CC3)[nH]c(=O)c2C1 [34-2]
< 50 nM,< 10 nM,O=C([C@H](O)c1cccc(C(F)(F)F)c1)N1CCCc2nc(C3(c4cccc(-c5ccc(F)cc5)c4)CC3)[nH]c(=O)c2C1 [42-59]
< 50 nM,< 10 nM,O=C([C@H](O)c1cccc(-c2ccc(Cl)cc2)c1)N1CCc2nc(C3(c4ccccc4)CC3)[nH]c(=O)c2C1 [44-86]
< 50 nM,< 3 nM,Cc1ccc(-c2cccc([C@@H](O)C(=O)N3CCCc4nc(C5(c6ccccc6)CC5)[nH]c(=O)c4C3)c2)cc1Cl [49-31]
< 50 nM,,O=C(C(O)c1cccc(-c2cccc(C3CC3)c2)c1)N1CCc2nc(C3(c4ccccc4)CC3)[nH]c(=O)c2C1 (centres unmarked) [44-20]
< 50 nM,< 3 nM,O=C(CCc1ccccc1)N1CCC(c2cccc(C3(c4nc5c(c(=O)[nH]4)CN(C(=O)[C@H](O)c4cccc(C(F)(F)F)c4)CCC5)CC3)c2)CC1 [31-11]
< 50 nM,< 3 nM,"O=C([C@H](O)c1cccc(Cl)c1)N1CCCc2nc(C3(c4cccc(C5CCCCC5)c4)CC3)[nH]c(=O)c2C1 [29-2, (R)-6-(2-(3-chlorophenyl)-2-hydroxyacetyl)-2-(1-(3-cyclohexylphenyl)cyclopropyl)-3,5,6,7,8,9-hexahydro-4H-pyrimido[5,4-c]azepin-4-one]"
< 50 nM,< 10 nM,O=C([C@H](O)c1cccc(-c2cc(Cl)ccc2Cl)c1)N1CCc2nc(C3(c4ccccc4)CC3)[nH]c(=O)c2C1 [44-108]
< 50 nM,,O=C(C(O)c1cccc(-c2ccccc2OC(F)(F)F)c1)N1CCc2nc(C3(c4ccccc4)CC3)[nH]c(=O)c2C1 (centres unmarked) [44-57]
< 50 nM,< 10 nM,O=C([C@H](O)c1cccc(-c2ccc(OC(F)(F)F)cc2)c1)N1CCCc2nc(C3(c4cccc(Cl)c4)CC3)[nH]c(=O)c2C1 [50-26]
< 50 nM,< 10 nM,O=C([C@H](O)c1cccc(C(F)(F)F)c1)N1CCCc2nc(C3(c4cccc(C5=CCN(S(=O)(=O)C6CCCCC6)CC5)c4)CC3)[nH]c(=O)c2C1 [42-76]
< 50 nM,< 10 nM,CC(C)(C)CC(=O)N1CCC(c2cccc(C3(c4nc5c(c(=O)[nH]4)CN(C(=O)[C@H](O)c4cccc(C(F)(F)F)c4)CCC5)CC3)c2)CC1 [31-12]
< 50 nM,< 10 nM,O=C([C@H](O)c1cccc(C(F)(F)F)c1)N1CCCc2nc(C3(c4cccc(-c5ccccc5F)c4)CC3)[nH]c(=O)c2C1 [42-56]
